Reference: patent publication US8815210B2, “Diagnostic composition comprising plasma cations having superior safety profile” (GE Healthcare AS, priority 2009, dated 2014)

Assays:
Sca:SD rats = details: rat, in vivo
Description: Young adult male Sca:SD rats (Scanbur, Sweden), weighing 200±20 g, were injected intravenously at a rate of 1.2 ml/min with either Compound I (340 mgI/mL, 286 mosmol/kg), iodixanol (321 mgI/mL, 284 mosmol/kg), osmotic control mannitol (283 mosmol/kg), or saline (290 mosmol/kg), administered as 2 separate doses 4 hours apart. For the interim kill animals (day 2 post-treatment), Compound I and iodixanol were dosed at 8, 10 and 12.8 gI/kg, corresponding to total dose volumes of 23.7, 29.7 and 38.0 ml/kg, and 25, 31.3 and 40 ml/kg, respectively, whereas for mannitol and saline, the dose volume was 40 ml/kg. For the 7 day terminal kill animals, there were 4 dose groups; Compound I and iodixanol (12.8 gI/kg), and saline and mannitol (40 mL/kg). In all cases, each group included 8 animals.
The following evaluations were made during the study; clinical signs, body weights and blood for haematology and clinical chemistry on days 0, 2 and 7, and gross observations, organ weight and histomorphological examination of tissues from the animals killed by excess intravenous thiopental injection on days 2 or 7. The day of dosing was defined as Day 0. Clinical biochemistry parameters (Na, K, Cl, PO4, Ca, AST, ALT, ALP, cholesterol, creatinine, CK, GGT, TG (triglyceride), total bilirubin, total protein, urea, albumin, LDH and GLDH were measured on a Beckman Synchron CX5 at 37° C. Haematology parameters (WBC, differential WBC, RBC, WBC/RBC ratio, Hgb, PLT, HCT, MCH, MCHC, MCV, MPV and RDW) were analyzed with an Abbott Cell-Dyn 3500 CS automated haematology analyzer. Kidneys from saline control and the 12.8 gI/kg Compound I and iodixanol groups were immerse fixed in 10% neutral buffered formalin, processed into paraffin wax, sectioned at a nominal thickness of 5 μm, stained with haematoxylin and eosin and examined by light microscopy.
The data were analysed by parametric one-way ANOVA, followed by Dunnett's post procedure test, using the 2 days and 7 days saline groups for comparison with the 2 days and 7 days iodixanol and Compound I groups. The statistical analysis was applied on day −1 (baseline), day 2 and day 7.

[1] = Osmolality, vapour pressure osmometer; format: physicochemical; details: 320 mgI/ml
Description: The osmolality of Compound I was determined at four different concentrations, 204, 254, 310 and 324 mgI/ml. The osmolality of Compound I at 320 mgI/ml is 136 mOsm/kg.
The osmolality of Compound I was determined at four different concentrations, 204, 254, 310 and 324 mgI/ml. A Vapro 5520 vapour pressure osmometer from Vapro Inc. was used.
The osmolality of Compound I at 320 mgI/ml is lower than that of iodixanol, 136 mOsm/kg vs 210 mOsm/kg at 320 mgI/ml.

normal pigs = assay: Haemodynamic effects after LAD injection in normal pigs without balloon occlusion (Example 2b); format: in vivo, pig; details: 25 ml into LAD, 45 to 70 seconds after injection
Source text: FIG. 5 depicts the effect of Compound I (with and without added Ca) and Visipaque on LVSP 45 to 70 seconds from the start of injection to the LAD of normal pigs normalised to Ringer Lacate (LR) injection.
The haemodynamic effects of compositions of Compound I with and without added CaCl2 were compared to Visipaque and Iopamidol following selective administration to the LAD in normal pigs without balloon occlusion. The effects of each contrast media were normalised to any effects seen with an equivalent injection of Ringer Lactate solution, which acted as a volume and electrolyte—“ratio” control. There were a total of 12 pigs in this study, and each pig received a single CM injected 3 times at volumes of 10 ml (4 ml/sec), 20 ml (1 ml/sec) and 25 ml (0.4 ml/sec) (total of 9 CM injections in each pig). Each CM was either preceded or followed by a control injection of Ringer Lactate, and the order of each injection (volume) was randomised in each pig.

In the case of `O=CN(CC(O)CN(C=O)c1c(I)c(C(=O)NCC(O)CO)c(I)c(C(=O)NCC(O)CO)c1I)c1c(I)c(C(=O)NCC(O)CO)c(I)c(C(=O)NCC(O)CO)c1I` (stereo not shown) [Compound I, 5-[formyl-[3-[formyl-[3,5-bis(2,3-dihydroxypropylcarbamoyl)-2,4,6-triiodophenyl]amino]-2-hydroxypropyl]amino]-N,N′-bis(2,3-dihydroxypropyl)-2,4,6-triiodobenzene-1,3-dicarboxamide], the “Proximal Tubule Vacuolation, Left Kidney” value (Sca:SD rats; male, Sca:SD, 2 day) is reported as 3, 3, 3, 3, the “duration of clinical signs” value (Sca:SD rats; male, Sca:SD, iv) is reported as 2 to 3 h and the “onset of clinical signs after the first administration” value (Sca:SD rats; male, Sca:SD, iv) is reported as 10 to 20 min. The adverse clinical signs (Sca:SD rats; iv) was “mild to moderate depression and uncoordinated movements and weakness/inactivity”, the osmolality [1] was 136 mOsm/kg and the “LVSP change normalised to Ringer Lactate” value (normal pigs; composition with 45 mM NaCl and 0.5 mM CaCl2) was −0.3 mm Hg. For the same compound, the “LVSP change normalised to Ringer Lactate (mean)” value (normal pigs; composition with 45 mM NaCl, no added CaCl2) was −5.7 mm Hg.
